Columns and labels:
APOL1 G2 [1] = target: T1, APOL1 G2 (Homo sapiens, UniProt O14791, DEL388-389); assay: APOL1 calcium transport inhibition assay (GCaMP6f calcium influx, FLIPR) in HEK T-REx/GCaMP6f/APOL1 G2 K6.3 cells; format: cell-based; settings: inhibition of APOL1-mediated calcium influx; geometric mean of at least 2 assay runs, † = single assay run (technical duplicate)
T1 construct: expressed in transfected cells; host or cells: HEK293 T-REx clonal lines: HEK T-REx/GCaMP6f/APOL1 G2 K6.3 in A1, HEK293/T-REx APOL1 G2/clone #2 in A2
T1 sequence (O14791 with tags, fused parts or gaps DEL388-389): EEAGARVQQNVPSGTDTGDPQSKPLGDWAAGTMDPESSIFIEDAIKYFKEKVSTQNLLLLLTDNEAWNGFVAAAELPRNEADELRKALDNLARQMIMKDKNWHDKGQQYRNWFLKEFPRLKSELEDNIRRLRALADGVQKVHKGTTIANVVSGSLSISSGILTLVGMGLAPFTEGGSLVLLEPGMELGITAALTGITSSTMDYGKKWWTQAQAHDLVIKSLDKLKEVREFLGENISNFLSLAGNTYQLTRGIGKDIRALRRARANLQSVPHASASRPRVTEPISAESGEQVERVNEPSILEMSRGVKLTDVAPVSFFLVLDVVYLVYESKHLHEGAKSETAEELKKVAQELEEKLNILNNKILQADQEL
Protocol: A HEK293 clonal cell line was generated to stably express GCaMP6f, a genetically encoded calcium indicator, and inducibly express APOL1 G2 (HEK T-REx/GCaMP6f/APOL1 G2 K6.3). Cells were maintained in the following standard complete medium: DMEM with 4.5 g/L glucose and sodium pyruvate (BioWhittaker, Lonza, BE12-614F), supplemented with 10% FBS Performance Plus (Gibco, 16000044), 1% penicillin-streptomycin (BioWhittaker, DE17-602E), 2 mM ultraglutamine-1 (BioWhittaker cat. BE 17-605/U1), 50 μg/mL Zeocin (InvivoGen, ant-zn), 2.5 μg/mL Blasticidin (InvivoGen, ant-bl-5), and 25 μg/mL Hygromycin (InvivoGen, ant-hg). Standard propagation conditions consisted of plating 9×10^6, 4×10^6, 2×10^6 cells in a T225 flasks to be processed after 2, 3, or 4 days, respectively.
A source plate was generated containing 20 serially diluted compounds in DMSO (duplicate 8-point dose response). Next, 0.8 μL of compounds were transferred from the source plate to a destination plate prefilled with 79.2 μL of Ca^2+ free Tyrode's buffer (130 mM NaCl, 5 mM KCl, 1 mM MgCl2, 5 mM NaHCO3, 20 mM HEPES at pH 7.4). The destination plate was placed on a plate shaker (5 seconds at 2000 rpm) to mix. […] All transfer and mixing steps were conducted with an CyBi®-Well dispenser.
Cells were split by gently washing with DPBS (Euroclone, ECB4004L), followed by a 5-minute incubation (humidified, 37° C. with 5% CO2) with trypsin-EDTA solution (Euroclone, ECB3052D). Detached cells were diluted with standard complete medium without selective agents, counted, and plated in a 384 MTP microplate (GR4332CPL, Twin Helix) (10,000 cells/well in 25 μl/well) using a MATRIX WellMate dispenser. Plates were placed into a humidified incubator (37° C. with 5% CO2) overnight. The following day, 20 μL of doxycycline (Sigma, D9891) at 20 ng/mL in standard complete medium was added to cells with a CyBi @Drop dispenser to induce APOL1 G2 expression. After a 6-hour incubation (humidified, 37° C. with 5% CO2), cells were washed 3 times with Ca^2+ free Tyrode's Buffer (130 mM NaCl, 5 mM KCl, 1 mM MgCl2, 5 mM NaHCO3, 20 mM HEPES at pH 7.4) using a BIOTEK Microplate washer, such that 10 μL of buffer remained in each well after the final wash. Assay plates were then stored at room temperature for 10 minutes. Next, 10 μL of diluted compounds were transferred to the assay plate from the 2× compound plate using a CyBi®-Well dispenser. Compound incubation was then carried out at room temperature for 10 minutes. The assay plate was transferred to the […] and 20 μL of 10 mM Ca^2+ (final concentration=5 mM) Tyrode's buffer was injected.
Table B1 below summarizes the data from this experiment. Unless otherwise specified, AC50 and values are reported as the geometric mean of at least 2 assay runs on separate days. Each run represents the average of a technical replicate, where each compound was assayed twice in the same plate. A superscript † symbol indicates a value from the average of a technical replicate from a single assay run, where each compound was assayed twice in the same plate.
The AC50 values in Table B1 below reflect the compound's ability to prevent calcium influx by inhibiting APOL1. […] Compounds in Table B1 are referred to by the corresponding Compound Number in Table 1, which is also referred to in the synthetic examples. When one or more of the numbered compounds are identified by stereochemistry (for example, (R)- or (S)—), the specific stereoisomer for which data is provided in Table B1 may be identified by the elution order of such compound as described in the synthetic examples. To illustrate, Compound 2 is the first-eluting enantiomer of step 4 of Example 1 and Compound 3 is the second-eluting enantiomer of step 4 of Example 1. Further, by way of illustration, Compound 27 is the first-eluting enantiomeric mixture in step 4 of Example 7 and Compound 28 is the second-eluting enantiomeric mixture in step 4 of Example 7. […]

APOL1 G2 [2] = target: T1, APOL1 G2; assay: Rescue of HEK293 cell death caused by overexpression of APOL1 (CellTiter-Glo luminescence), HEK293/T-REx APOL1 G2/clone #2; format: cell-based; settings: reversal of cell death caused by overexpression of APOL1; geometric mean of at least 2 assay runs, † = single assay run (technical duplicate)
Protocol: A HEK293 clonal cell line overexpressing APOL1 G2 (HEK293/T-REx APOL1 G2/clone #2) was maintained in 1×DMEM-GlutaMax (Gibco, 10569-010) media with 10% tetracycline-free FBS (Takara Bio USA, 631101), 5 μg/mL Blasticidin (Gibco, A1113903), and 100 μg/mL Zeocin (Invitrogen, R25001) in T75 flasks. In preparation for the assay, this media was aspirated and 2 mL of prewarmed TrypLE Express (Gibco, 12605-010) was added to a flask to detach cells. The flask was then incubated (humidified, 37° C. with 5% CO2) for 3-5 minutes. Afterwards, 8 mL of prewarmed cell assay media (lx DMEM-GlutaMax media with 10% tetracycline-free FBS) was added to the trypsinized cells. The suspension was gently mixed, and cells were counted using a Countess Cell Counting Chamber (Invitrogen). The suspension was diluted using cell assay media to generate a working stock solution (166,667 cells/mL). Using a MultiDrop Combi (Thermo Electron Corp), 30 μL (final cell density=5,000 cells/well) of the working stock solution was dispensed into each well of white 384-well assay ready plates (Nunc™, 164610) containing 6 ng/mL doxycycline, to induce APOL1 expression, and compound. All compounds were plated in a duplicate 8-point dilution series that consisted of 3-fold stepwise dilutions (0.5% DMSO final). Assay plates were incubated (humidified, 37° C. with 5% CO2) for 17 hours. After the incubation, the plates were equilibrated at room temperature for 1 hour. Next, 15 μl of CellTiter-Glo® reagent (Promega, G7570) was added to each well using a MultiDrop Combi. Plates were placed on an orbital shaker (500 rpm) for 5 minutes to induce cell lysis and then incubated at room temperature for 10 minutes. Luminescence was measured on an Envision plate reader. Collaborative Drug Discovery software was utilized for graphing data. Plots were generated using a four parameter logistic curve fit.
Table B2 below provides the results from this experiment. Unless otherwise specified, EC50 values are reported as the geometric mean of at least 2 assay runs on separate days. Each run represents the average of a technical replicate, where each compound was assayed twice in the same plate. A superscript t symbol indicates a value from the average of a technical replicate from a single assay run, where each compound was assayed twice in the same plate. Compounds in Table B2 are referred to by the corresponding Compound Number in Table 1, which is also referred to in the synthetic examples. When one or more of the numbered compounds are identified by stereochemistry (for example, (R)- or (S)—), the specific stereoisomer for which data is provided in Table B2 may be identified by the elution order of such compound as described in the synthetic examples. To illustrate, Compound 2 is the first-eluting enantiomer of step 4 of Example 1 and Compound 3 is the second-eluting enantiomer of step 4 of Example 1. Further, by way of illustration, Compound 27 is the first-eluting enantiomeric mixture in step 4 of Example 7 and Compound 28 is the second-eluting enantiomeric mixture in step 4 of Example 7. Then, Compound 27 is separated into Compound 29 (the first-eluting enantiomer) and Compound 30 (the second-eluting enantiomer) in Example 8, and Compound 28 is separated into Compound 31 (the first-eluting enantiomer) and Compound 32 (the second-eluting enantiomer) in Example 8. Absolute stereochemistry of such compounds may be identified by methods known in the art.
Rescue EC50 values reported in Table B2 below represent the half-maximal effective concentration for reversal of cell death caused by overexpression of APOL1.

Compound	AC50 (APOL1 G2 [1])	EC50 (APOL1 G2 [2])
CC1CC(COc2ccc(S(C)(=O)=O)cc2)CN1CCc1cccc(Cl)c1 (single isomer, unassigned) [Compound 56, (2R,4R) or (2S,4R) or (2S,4S) or (2R,4S)-1-(3-chlorophenethyl)-2-methyl-4-((4-(methylsulfonyl)phenoxy)methyl)pyrrolidine]	580 nM	1680 nM
C[C@@H]1CN(CCc2cc(Cl)cc(C#N)c2)C[C@H]1COc1ccc(S(=O)(=O)CCO)cc1 [Compound 174, 3-chloro-5-{2-[(3S,4S)-3-{[4-(2-hydroxyethanesul-fonyl)phenoxy]meth-yl}-4-methylpyrrolidin-1-yl]ethyl}benzonitrile]	157 nM	36.1 nM
C[C@H]1CN(CCc2cccc(Cl)c2)C[C@@H]1COc1ccc(S(=O)(=O)CCCS(C)(=O)=O)cc1 (racemic) [Compound 175, rac-trans-1-[2-(3-chlorophenyl)eth-yl]-3-{[4-(3-methanesulfonylpro-panesulfonyl)phe-noxy]methyl}-4-methylpyrrolidine]	< 72.8 nM	143 nM
CC1CC(COc2ccc(S(C)(=O)=O)cc2)CN1CCc1cccc(C#N)c1 (single isomer, unassigned) [Compound 138, 3-{2-[(2R,4S or 2S,4R or 2R,4R or 2S,4S)-4-[(4-methanesulfon-ylphenoxy)meth-yl]-2-methyl-pyrrolidin-1-yl]-ethyl}benzo-nitrile]	2500 nM	1970 nM
C[C@H]1CN(CCc2cccc(Cl)c2)C[C@@H]1COc1ccc(N(C)S(C)(=O)=O)cc1 (racemic) [Compound 45, rac-trans-N-(4-((1-(3-chlorophenethyl)-4-methylpyrrolidin-3-yl)methoxy)phenyl)-N-methylmethanesulfonamide]	71.2 nM	< 13.7 nM
COC(CN1CCC[C@@H](COc2ccc(S(C)(=O)=O)cc2)C1)c1cccc(Cl)c1 (single isomer, unassigned) [Compound 25, (R)-1-((R)-2-(3-chlorophenyl)-2-methoxyethyl)-3-((4-(methylsulfonyl)phenoxy)methyl)piperidine or (R)-1-((S)-2-(3-chlorophenyl)-2-methoxyethyl)-3-((4-(methylsulfonyl)phenoxy)methyl)piperidine]	469 nM	1010 nM
C[C@@H]1CN(CCc2cc(C#N)cc(C#N)c2)C[C@H]1COc1ccc(S(C)(=O)=O)cc1 [Compound 145, 5-{2-[(3S,4S)-3-[(4-methane-sulfonylphen-oxy)methyl]-4-methylpyrroli-din-1-yl]ethyl}-benzene-1,3-dicarbonitrile]	356 nM	243 nM
CN(c1ccc(OC[C@@H](O)CNCCc2ccccc2OC(F)F)cc1)S(C)(=O)=O [Compound 101, (S)-N-(4-(3-((2-(difluoromethoxy)phenethyl)amino)-2-hydroxypropoxy)phe-nyl)-N-methylmethanesulfon-amide]	1300 nM	10100 nM
C[C@@]1(O)CN(CCc2cccc(Cl)c2)C[C@@H]1COc1ccc(S(C)(=O)=O)cc1 (single isomer, unassigned) [Compound 209, (3R,4S or 3S,4R)-1-[2-(3-chlorophenyl)ethyl]-4-[(4-methanesulfonylphenoxy)methyl]-3-methylpyrrolidin-3-ol pyrrolidine-3-ol]	3740 nM	> 19500 nM
C[C@@H]1C[C@H](COc2ccc(S(C)(=O)=O)cc2)CN1CC(O)c1cc(C#N)cc(C#N)c1 (single isomer, unassigned) [Compound 118, 5-[(1R or 1S)-1-hydroxy-2-[(2R,4S)-4-[(4-methanesulfonylphenoxy)methyl]-2-methylpyrrolidin-1-ylethyl]benzene-1,3-dicarbonitrile]	936 nM	4040 nM
CN(c1ccc(OC[C@@H](O)CN2CCOC(c3cccc(Cl)c3)C2)cc1)S(C)(=O)=O (single isomer, unassigned) [Compound 82, N-(4-((S)-3-((R) or (S)-2-(3-chlorophenyl)morpho-lino)-2-hydroxypropoxy)phe-nyl)-N-methylmethanesulfon-amide]	4350 nM	> 24300 nM
